According to patent US11401271B2, “Fused heterocyclic compound, pyrazole-ring-containing fused heterocyclic compound, agricultural composition containing thereof, and method of using the composition” (SOUTH CHINA AGRICULTURAL UNIVERSITY, priority 2017, dated 2022):
Where two headings read alike, the source gives them in different places.

Assays:
Test in all cases: whole plant or invertebrate
Type in all cases: in vivo
Plutella xylostella = conditions: for mortality at 500 ppm: Plutella xylostella, read-out: Plutella xylostella Mortality (%) 500 ppm
Protocol: (1) Insecticidal Activity on 2nd-Instar Larvae of Plutella xylostella.
Plutella xylostella (L.) is a lepidoptera pest with a chewing mouthpart and is a common vegetable pest. The 2nd-instar larvae of Plutella xylostella were used as test objects and tested by using a leaf immersion feeding method.
(§1) Operation process: Samples were weighed accurately, and respectively added with 200 μL of dimethyl sulfoxide to prepare 10 g/L mother liquor which was diluted into a concentration of 500 ppm with an aqueous solution containing 0.05% of Tween-80 during the test. A hole puncher with a diameter of 1.0 cm was used to make cleaned cabbage leaves into leaf discs. The leaf discs were immersed in a liquid medicine, taken out after 5 seconds, air-dried naturally, and transferred into a clean vessel. About 35 2nd-instar larvae of Plutella xylostella were put into the vessel and fed at a constant temperature of 28° C. Each concentration was repeated 3 times, and an aqueous solution containing 0.05% of Tween-80 was used as a control group. After being treated for 24 hours, a number of dead Plutella xylostella was counted, and a mortality (%) was calculated according to a formula that mortality (%)=(number of live larvae in the control group−number of treated live larvae)/number of live larvae in the control group*100%.

Aphis craccivora = conditions: for mortality at 500 ppm: Aphis craccivora, read-out: Aphis craccivora Mortality (%) 500 ppm; for Aphis craccivora Mortality (%): immersion 5 seconds, counted after 24 hours
Protocol: (3) Insecticidal Activity on Aphid Adults.
Aphid is a homoptera pest with a piercing-sucking mouthpart and is a common vegetable pest. Aphis craccivora were taken as test objects and tested by using an impregnation method.
Operation process: Samples were weighed accurately, and respectively added with 200 μL of dimethyl sulfoxide to prepare 10 g/L mother liquor which was diluted into a concentration of 500 ppm with an aqueous solution containing 0.05% of Tween-80 during the test. After the wingless Aphis craccivora adults stably sucked on bean sprouts, the wingless Aphis craccivora adults together with the bean sprouts were immersed into a liquid medicine with a concentration of 500 ppm, taken out after 5 seconds, air-dried naturally, transferred into a clean vessel, and fed at a constant temperature of 23° C. Each concentration was repeated 3 times, and an aqueous solution containing 0.05% of Tween-80 was used as a control group. After being treated for 24 hours, a number of dead Aphis craccivora was counted, and a mortality (%) was calculated according to a formula that mortality (%)=(number of live Aphis craccivora in the control group−number of treated live Aphis craccivora)/number of live Aphis craccivora in the control group*100%.

Solenopsis invicta = conditions: water test tube poison-feeding; for mortality at 100 ppm: Solenopsis invicta
Protocol: (4) Insecticidal Activity on Solenopsis invicta.
As a hymenoptera pests and a social insect, Solenopsis invicta is one of the most destructive invasive organisms. Solenopsis invicta were used as test objects and tested by using a water test tube poison-feeding method.
Operation process: Samples were weighed accurately, and respectively added with 200 μL of dimethyl sulfoxide to prepare 10 g/L mother liquor which was diluted into a concentration of 100 ppm with a mixed aqueous solution containing 0.05% of Tween-80 and 5% of honey during the test. […] The raising test tube was placed in a raising box horizontally, and a small amount of ham sausages were added to the raising test tube as food to raise the Solenopsis invicta at a constant temperature of 25° C. After being treated for 24 hours and 72 hours, a number of live Solenopsis invicta and a number of dead Solenopsis invicta were counted, and a mortality (%) was calculated according to a formula that mortality (%)=(number of live Solenopsis invicta in the control group−number of treated live Solenopsis invicta)/number of live Solenopsis invicta in the control group*100%.

Spodoptera exigua = conditions: for mortality at 500 ppm: Spodoptera exigua, read-out: Spodoptera exigua Mortality (%) 500 ppm
Protocol: (2) Insecticidal Activity on 2nd-Instar Larvae of Spodoptera exigua.
Spodoptera exigua is a lepidoptera pest with a chewing mouthpart and is a common vegetable pest. The 2nd-instar larvae of Spodoptera exigua were used as test objects and tested by using a leaf immersion feeding method.
as §1, with “μL,” for “μL”, “2nd -instar” for “2nd-instar”, “Spodoptera exigua” for “Plutella xylostella”, “group −number” for “group−number”, “group * 100%.” for “group*100%.”

[1] = 500 ppm, 2nd-instar larvae, leaf immersion feeding
[2] = 500 ppm, wingless adults, impregnation method, 24 hours
[3] = 100 ppm, 24 h, read-out: Solenopsis invicta Mortality (%) 100 ppm 24 h
[4] = 100 ppm, 72 h, read-out: Solenopsis invicta Mortality (%) 100 ppm 72 h
[5] = 500 ppm, 2nd-instar larvae, leaf immersion feeding, 24 hours
[6] = 24 h, read-out: Solenopsis invicta Mortality (%) 100 ppm 24 h, 100 ppm, 24 h
[7] = 72 h, read-out: Solenopsis invicta Mortality (%) 100 ppm 72 h, 100 ppm, 72 h

## CSc1nn2c(c1C#N)N(C(=O)Oc1ccccc1)C(F)(C(F)(F)F)c1ccccc1-2 (centres unmarked) [Compound A31]
Plutella xylostella; [1]
  mortality at 500 ppm: 100%
Aphis craccivora; [2]
  mortality at 500 ppm: 100%
Solenopsis invicta; [3]
  mortality at 100 ppm: 20%
Solenopsis invicta; [4]
  mortality at 100 ppm: 100%
Spodoptera exigua; [5]
  mortality at 500 ppm: 100%

## COC(=O)C1(CBr)Nc2c([S+]([O-])C(F)(F)F)c(C#N)nn2-c2c(Cl)cc(C(F)(F)F)cc21 (stereo not drawn) [d-34]
Plutella xylostella; [1]
  Plutella xylostella Mortality (%): 90%
Aphis craccivora; 500 ppm, wingless adults
  Aphis craccivora Mortality (%): 100%
Solenopsis invicta; 100 ppm, 24 h
  Solenopsis invicta Mortality (%) 24 h: 25%
Solenopsis invicta; 100 ppm, 72 h
  Solenopsis invicta Mortality (%) 72 h: 93%
Spodoptera exigua; [1]
  Spodoptera exigua Mortality (%): 95%

## N#Cc1nn2c(c1[S+]([O-])C(F)(F)F)NC(C#N)c1cc(C(F)(F)F)cnc1-2 (centres unmarked) [a-72]
Plutella xylostella; [1]
  Plutella xylostella Mortality (%) 500 ppm: 96%
Aphis craccivora; [2]
  Aphis craccivora Mortality (%) 500 ppm: 100%
Solenopsis invicta; 100 ppm, 24 h
  Solenopsis invicta Mortality (%) 100 ppm 24 h: 20%
Solenopsis invicta; 100 ppm, 72 h
  Solenopsis invicta Mortality (%) 100 ppm 72 h: 91%
Spodoptera exigua; [5]
  Spodoptera exigua Mortality (%) 500 ppm: 89%

## C=CC1(CC#N)Nc2c([S+](C)[O-])c(C(C)=O)nn2-c2c(Cl)cc(C(F)(F)F)cc21 (centres unmarked) [Compound C23]
Plutella xylostella
  mortality at 500 ppm: 86%
Aphis craccivora; 24 h
  mortality at 500 ppm: 95%
Solenopsis invicta; [6]
  mortality at 100 ppm: 18%
Solenopsis invicta; [7]
  mortality at 100 ppm: 80%
Spodoptera exigua; 24 h
  mortality at 500 ppm: 88%

## CC1(C)Nc2c(NC(=O)Oc3ccccc3)c(C#N)nn2-c2ccccc21 [Compound A18]
Plutella xylostella; [1]
  mortality at 500 ppm: 100%
Aphis craccivora; [2]
  mortality at 500 ppm: 100%
Solenopsis invicta; [3]
  mortality at 100 ppm: 44%
Solenopsis invicta; [4]
  mortality at 100 ppm: 100%
Spodoptera exigua; [5]
  mortality at 500 ppm: 100%

## N#Cc1nn2c(c1[S+]([O-])C(F)(F)F)NC(C(=O)C(F)(F)F)c1cc(C(F)(F)F)cc(Cl)c1-2 (stereo not drawn) [d-81]
Plutella xylostella; [1]
  Plutella xylostella Mortality (%): 99%
Aphis craccivora; 500 ppm, wingless adults
  Aphis craccivora Mortality (%): 100%
Solenopsis invicta; 100 ppm, 24 h
  Solenopsis invicta Mortality (%) 24 h: 35%
Solenopsis invicta; 100 ppm, 72 h
  Solenopsis invicta Mortality (%) 72 h: 100%
Spodoptera exigua; [1]
  Spodoptera exigua Mortality (%): 90%

## COC(=O)C(C)C1Nc2c([S+]([O-])C(F)(F)F)c(C#N)nn2-c2cncc(Cl)c21 (centres unmarked) [b-66]
Plutella xylostella; [1]
  Plutella xylostella Mortality (%): 96%
Aphis craccivora; 500 ppm, wingless adults
  Aphis craccivora Mortality (%): 100%
Solenopsis invicta; 100 ppm, 24 h
  Solenopsis invicta Mortality (%) 24 h: 28%
Solenopsis invicta; 100 ppm, 72 h
  Solenopsis invicta Mortality (%) 72 h: 97%
Spodoptera exigua; [1]
  Spodoptera exigua Mortality (%): 91%

## CCOC(=O)CC1(C(=O)OCC)Nc2c([S+]([O-])C(F)(F)F)c(C#N)nn2-c2ncc(C(F)(F)F)cc21 (centres unmarked) [a-22]
Plutella xylostella; [1]
  Plutella xylostella Mortality (%) 500 ppm: 100%
Aphis craccivora; [2]
  Aphis craccivora Mortality (%) 500 ppm: 100%
Solenopsis invicta; 100 ppm, 24 h
  Solenopsis invicta Mortality (%) 100 ppm 24 h: 30%
Solenopsis invicta; 100 ppm, 72 h
  Solenopsis invicta Mortality (%) 100 ppm 72 h: 100%
Spodoptera exigua; [5]
  Spodoptera exigua Mortality (%) 500 ppm: 100%

## CC(=O)C1(CC(=O)C(F)(F)F)Nc2c([S+]([O-])C(F)(F)F)c(C#N)nn2-c2cc(C(F)(F)F)cc(Cl)c21 (centres unmarked) [c-47]
Plutella xylostella; [1]
  Plutella xylostella Mortality (%): 90%
Aphis craccivora; 500 ppm, wingless adults
  Aphis craccivora Mortality (%): 100%
Solenopsis invicta; 100 ppm, 24 h
  Solenopsis invicta Mortality (%) 24 h: 35%
Solenopsis invicta; 100 ppm, 72 h
  Solenopsis invicta Mortality (%) 72 h: 99%
Spodoptera exigua; [1]
  Spodoptera exigua Mortality (%): 89%

## CNC(=O)Nc1cc2n(n1)-c1cnccc1C(F)(CC(F)(F)F)N2 (centres unmarked) [Compound A41]
Plutella xylostella
  mortality at 500 ppm: 100%
Aphis craccivora; 24 h
  mortality at 500 ppm: 100%
Solenopsis invicta; [6]
  mortality at 100 ppm: 24%
Solenopsis invicta; [7]
  mortality at 100 ppm: 100%
Spodoptera exigua; 24 h
  mortality at 500 ppm: 100%
